Target: T1, HCV NS3/4A protease complex, BMS strain (genotype 1a) (UniProt P27958, C1454S/C1711G, species not given/STRAIN_BMS)
T1 construct: b1001: DNA encoding the recombinant HCV NS3/4A protease complex (amino acids 1027 to 1711) ... a three-lysine solubilizing tail was added at the 3′-end of the NS4A coding region; fused on or other part: Three-lysine solubilising tail at the C-terminus of NS4A; A His tag is implied by the pET21b vector and Ni-NTA purification
Experiment: Recombinant HCV NS3/4A protease complex FRET peptide assay, BMS strain
Type: biochemical
Details: NS3/4A BMS strain; activity range symbols
How it was run: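 Recombinant NS3/4A (aa 1027–1711) from H77C, J4L6S or BMS strains, with C1454S and C1711G mutations and three-lysine tail, expressed in E. coli and Ni-NTA/gel-filtration purified to >90%. Inhibition of cleavage of a FRET peptide substrate measured.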

Row | SMILES | IC50 [nM]
1 | COc1ccc2c(OC3CC4C(=O)NC5(C(=O)NS(=O)(=O)C6CC6)CC5C=CCCCOCC(NC(=O)OC5CCCC5)C(=O)N4C3)nc(-c3ccccc3)cc2c1 (stereo not drawn) [Compound 94] | < 50
2 | COc1ccc2c(OC3CC4C(=O)NC5(C(=O)NS(=O)(=O)C6CC6)CC5C=CCOCCCC(NC(=S)NC5CC5)C(=O)N4C3)nc(-c3ccccc3)cc2c1 (stereo not drawn) [Compound 104] | < 50
3 | CC(C)NC(=O)NC1CCCCCC=CC2CC2(C(=O)NS(=O)(=O)C2CC2)NC(=O)C2CC(Oc3nccc4ccccc34)CN2C1=O (stereo not drawn) [Compound 128] | < 50
4 | COc1ccc2c(OC3CC4C(=O)NC5(C(=O)NS(=O)(=O)C6CC6)CC5C=CCOCCCC(NC(=O)OC(C)C)C(=O)N4C3)nc(-c3ccccc3)cc2c1 (stereo not drawn) [Compound 98] | < 50
5 | CC(C)(C)OC(=O)NC1CCCCCC=CC2CC2(C(=O)NS(=O)(=O)C2CC2)NC(=O)C2CC(Oc3nccc4c(Cl)cccc34)CN2C1=O (stereo not drawn) [Compound 130] | < 50
6 | COc1ccc2c(O[C@@H]3C[C@H]4C(=O)N[C@]5(C(=O)NS(=O)(=O)C6CC6)C[C@H]5/C=C\CCCOC[C@H](NC(=O)OC(C)(C)C)C(=O)N4C3)nccc2c1 [Compound 85, (1S,4R,6S,14S,18R)-[7-cis-4-Cyclopropanesulfonylaminocarbonyl-18-(6-methoxy-isoquinolin-1-yloxy)-2,15-dioxo-12-oxa-3,16-diaza-tricyclo[14.3.0.0^4,6]nonadec-7-en-14-yl]-carbamic acid, tert-butyl ester] | < 50
7 | CC(C)(OC(=O)NC1CCCCCC=CC2CC2(C(=O)NS(=O)(=O)C2CC2)NC(=O)C2CC(Oc3nccc4ccccc34)CN2C1=O)C(Cl)(Cl)Cl (stereo not drawn) [Compound 124] | < 50
8 | CC(C)(C)OC(=O)N[C@H]1CNCCC/C=C\[C@@H]2C[C@@]2(C(=O)NS(=O)(=O)C2CC2)NC(=O)[C@@H]2C[C@@H](Oc3nccc4ccccc34)CN2C1=O [Compound 151] | < 50
9 | CC1(COC(=O)NC2CCCCCC=CC3CC3(C(=O)NS(=O)(=O)C3CC3)NC(=O)C3CC(Oc4nccc5ccccc45)CN3C2=O)CC1 (stereo not drawn) [Compound 122] | < 50
10 | COC(=O)N1CCC/C=C\[C@@H]2C[C@@]2(C(=O)NS(=O)(=O)C2CC2)NC(=O)[C@@H]2C[C@@H](Oc3nccc4ccccc34)CN2C(=O)[C@@H](NC(=O)OC(C)(C)C)C1 [Compound 148] | < 50
11 | COc1ccc2c(OC3CC4C(=O)NC5(C(=O)NS(=O)(=O)C6CC6)CC5C=CCCCOCC(NC(=O)OCC(C)(C)C)C(=O)N4C3)nc(-c3ccccc3)cc2c1 (stereo not drawn) [Compound 95] | < 50
12 | COc1cccc2c(OC3CC4C(=O)NC5(C(=O)NS(=O)(=O)C6CC6)CC5C=CCCCCCC(NC(=O)OC(C)(C)C)C(=O)N4C3)nccc12 (stereo not drawn) [Compound 133] | < 50

Source: patent US7173004B2, “Macrocyclic isoquinoline peptide inhibitors of hepatitis C virus” (Bristol-Myers Squibb Company, priority 2003, dated 2007)
